Among the data in patent US11414377B2, “Modulator of metabotropic and ionotropic transmembrane receptors and use thereof” (IBD THERAPEUTICS LLC, priority 2018, dated 2022) are IC50 values, retold here.

In one experiment the target is T1, human NK2R (Homo sapiens, UniProt P21452).
T1 construct: expressed in transfected cells; host or cells: CHO cells
T1 sequence (P21452 1-398): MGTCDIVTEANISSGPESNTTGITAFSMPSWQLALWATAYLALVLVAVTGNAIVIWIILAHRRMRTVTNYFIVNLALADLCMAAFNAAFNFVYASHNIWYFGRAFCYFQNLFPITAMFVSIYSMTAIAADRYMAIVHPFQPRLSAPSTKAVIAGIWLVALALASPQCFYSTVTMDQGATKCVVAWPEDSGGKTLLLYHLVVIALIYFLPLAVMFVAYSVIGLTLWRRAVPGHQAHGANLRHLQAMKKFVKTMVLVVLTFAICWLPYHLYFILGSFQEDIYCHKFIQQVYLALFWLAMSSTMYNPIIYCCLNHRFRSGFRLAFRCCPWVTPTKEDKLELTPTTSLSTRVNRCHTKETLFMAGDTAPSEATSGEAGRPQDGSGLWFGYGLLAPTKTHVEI
The experiment is described as follows: Effect on activity of tachykinin receptor type 2 (intracellular calcium, fluorescence). The class given is cell-based. Conditions: CHO cells expressing human NK2R, agonist [Nleu10]-NKA-(4-10) 10 nM, read-out: IC50, antagonist of tachykinin receptor type 2. The procedure: Compound I was dissolved in DMSO to a concentration of 100 mM; then the stock solution was serially diluted with DMSO. The maximal start concentration of substance is […]. The effect was determined at 8 concentrations of test compound, each concentration was investigated twice. CHO cells expressing human NK2R were used in the experiment, said cells after the preincubation with an agonist [Nleu10]-NKA-(4-10) (10 nM) were incubated with the test compound. The activity of receptors was determined by the intracellular calcium concentration using fluorescence spectroscopy (Biochem Biophys Res Commun. 1994 May 16; 200(3):1512-20).
(In general: Calcium flux is commonly read through the fluorescence of an indicator in the cells.)

A further experiment concerns the target T2, human NK1R (Homo sapiens, UniProt P25103).
T2 construct: U373 cells expressing human NK1R were used in the experiment; endogenous in cells; host or cells: U373 cells
The experiment is described as follows: Effect on activity of tachykinin receptor type 1 (intracellular calcium, fluorescence). It is filed as cell-based. Conditions: U373 cells expressing human NK1R, agonist [Sar9,Met(O2)11]-SP 1 nM, read-out: IC50, antagonist of tachykinin receptor type 1. The procedure: Compound I was dissolved in DMSO to a concentration of 100 mM; then the stock solution was serially diluted with DMSO. The maximal start concentration of substance is 100 μM. The effect was determined at 8 concentrations of test compound, each concentration was investigated twice. U373 cells expressing human NK1R were used in the experiment, said cells after the preincubation with an agonist [Sar9,Met(O2)11]-SP (1 nM) were incubated with Compound I. The activity of receptors was determined by the intracellular calcium concentration using fluorescence spectroscopy (Glia. 1992; 6(2):89-95).

T2 sequence (P25103 whole entry): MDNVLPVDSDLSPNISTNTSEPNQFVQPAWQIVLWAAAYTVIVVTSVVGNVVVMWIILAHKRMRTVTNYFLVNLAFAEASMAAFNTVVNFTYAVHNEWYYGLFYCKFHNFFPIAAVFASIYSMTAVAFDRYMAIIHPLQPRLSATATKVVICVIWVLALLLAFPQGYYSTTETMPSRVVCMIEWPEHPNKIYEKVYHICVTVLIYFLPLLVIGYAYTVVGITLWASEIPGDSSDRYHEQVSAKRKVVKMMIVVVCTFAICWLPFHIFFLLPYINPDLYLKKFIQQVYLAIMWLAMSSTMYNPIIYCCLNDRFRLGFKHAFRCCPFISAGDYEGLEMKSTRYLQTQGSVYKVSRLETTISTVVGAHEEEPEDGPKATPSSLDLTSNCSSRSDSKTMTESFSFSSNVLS

As a reminder, the IC50 is the point on the concentration scale where inhibition reaches its midpoint. With `O=C(Cc1ccc(O)cc1)N[C@@H](Cc1ccccc1)C(=O)NCCc1ccccc1` [Compound I, 2-phenylethylamide N-(p-hydroxyphenylacetyl)phenylalanine], the IC50 on human NK2R worked out at 6.4 µM; at human NK1R it was 59 µM.
